Measurements reported in patent publication US6497862B2, “Composition for inhibiting body odor and uses thereof” (Kabushiki Kaisha Hayashibara, priority 2000, dated 2002).

Experiments:
[1] = Formation of volatile aldehydes from oleic acid by heating, GC analysis of head space gas (Experiment 1); conditions: oleic acid 100 mg + 100 mg test saccharide, heated at 105° C. for one hour; for Content in HSG, Hexanal: control 0.08; for Content in HSG, Butanal: control 1.04; for Content in HSG, Propanal: control 9.41
Method: (§1) One hundred milligrams of oleic acid as a fatty acid, 500 mg of cellulose powder, and 1.25 ml of 0.12 M phosphate buffer (pH 6.0) were placed in a 20-ml glass vial. To the glass vial were added 100 mg of either of crystalline trehalose hydrate, crystalline maltitol anhydride, crystalline sorbitol anhydride, crystalline sucrose anhydride, crystalline maltose anhydride, and crystalline neotrehalose hydride as test saccharides (throughout Experiments 1 to 6, these saccharides are designated as “trehalose”, “maltitol”, sorbitol”, “sucrose”, “maltose”, and “neotrehalose”, respectively), followed by sealing the glass vial with a butyl rubber. As a control system, there provided a glass vial, with no a test saccharide, which differed from the test glass vial on this point. These glass vials were heated at 105° C. for one hour, cooled to ambient temperature, and kept in an aluminum heat-block (abbreviated as “heat block, hereinafter”), which had been preheated to 80° C. After 5-minutes standing, two milliliters of a head space gas (abbreviated as “HSG”, hereinafter) were collected from each glass vial with a syringe.
(§2) The collected HSG was analyzed for content of volatile aldehydes on gas chromatography (abbreviated as “GC” hereinafter) using “GAS CHROMATOGRAPH GC-14A”, as a GC apparatus; “CAPILLARY COLUMN SUPELCO-WAX”, having 0.25 mm in inner diameter, 60 m in length, and 0.25 μm in thickness, commercialized by Supelco Inc., Tokyo, Japan, as a column for analysis; helium gas at a flow rate of one ml/min as a carrier gas, under temperature conditions of 250° C. for injecting a sample and of a column thermostatic bath temperature being kept at 80° C. for five minutes and then increased up to 240° C. at a rate of 5° C./min. As standard specimens, propanal, butanal, and hexanal as volatile aldehydes were used. Based on the peak area obtained from gas chromatography for the standard specimens and HSG samples, the content of respective volatile aldehydes in HSG was calculated.

[2] = Panel test of body-odor-like smell, oleic acid heated (Experiment 1); parameters: key: +++: the same or higher level of odor; ++: slightly lower level of odor; +: clearly lower level of odor than that of the control system; conditions: oleic acid heated at 105° C. for one hour; six panels, compared with control system
Method: as §1
(§3) Upon the HSG samples, the level of a body-odor-like smell was examined on a panel test consisting of six professional panels; the panels directly smelled the samples from each glass vial and judged the level of the smells for each samples with test saccharides based on the following four ranks, i.e., the same or higher level of odor (+++), slightly lower level of odor (++), clearly lower level of odor (+), and odorless (−) as compared with the control system. Summing up the data from the panels, the samples tested were totally evaluated.

[3] = Formation of 2-nonenal from linoleic acid by heating, GC of HSG (Experiment 2); conditions: linoleic acid + 100 mg test saccharide, heated at 105° C. for one hour; control 5.75
Method: as §1, §2
(§4) The content of 2-nonenal in HSG was measured by GC similarly as in Experiment 1 except that linoleic acid was used as a fatty acid and 2-nonenal, a volatile aldehyde, was used as a standard substance. The level of a body-odor-like smell, particularly with respect to KAREI-SHU, in each sample was evaluated by panel test in accordance with the method in Experiment 1.

[4] = Formation of 2-nonenal from 9-hexadecanoic acid by heating, GC of HSG (Experiment 3); conditions: 9-hexadecanoic acid + 100 mg test saccharide, heated at 105° C. for one hour; control 25.7
Method: as §1, §2
as §4, with “9-hexadecanoic acid or palmitoleic” for “linoleic”, “of” for “of a”

[5] = Formation of 2-nonenal from 9-hexadecanoic acid at the temperature of human body, GC of HSG (Experiment 6); conditions: 37° C., 9,000 lux
Method: (§5) One hundred milligrams of 9-hexadecanoic acid as a fatty acid, 500 mg of a cellulose powder, and 1.25 ml of 0.12 M phosphate buffer (pH 6.0) were placed in a 20-ml glass vial. To the glass vial was added 100 mg of either of trehalose, maltitol and sucrose as a test saccharide, followed by sealing with a butyl rubber cap for use as a test system. As a control system, there provided a glass vial with no test saccharide that differed from the test systems only in this point. In both the test- and control-systems, they were respectively provided in doublet.
(§6) These glass vials were allowed to stand in a 37° C.-thermostatic-bath under the irradiation of 9,000 lux by a fluorescent lamp. At 3-days of standing, one of each pair of the vials containing the same composition, and 7-days of standing, the other vial of each resting pair of the vials were transferred to a heat block, which had been preheated to 80° C. and then kept therein for five minutes, followed by analyzing the content of 2-nonenal in HSG in each vial by GC similarly as in Experiment 2. After the collection of HSG, the smell from glass vials was evaluated by panel test in accordance with the method in Experiment 2.

[6] = Panel test of smell, 9-hexadecanoic acid at 37° C. (Experiment 6); parameters: key: +++: the same or higher level of odor; ++: slightly lower level of odor; +: clearly lower level of odor than that of the control system; conditions: 37° C., 9,000 lux
From the text: as §3, §5, §6

[7] = 3-days of standing, control 0.03
[8] = 7-days of standing, control 16.8

SMILES | Content in HSG, Hexanal [1] [µg/mL] | Content in HSG, Butanal [1] [µg/mL] | Content in HSG, Propanal [1] [µg/mL] | Evaluation of panel test [2] | Content of 2-nonenal in HSG [3] [µg/mL] | Content of 2-nonenal in HSG [4] [µg/mL] | Content of 2-nonenal in HSG [5, 7] [µg/mL] | Content of 2-nonenal in HSG [5, 8] [µg/mL] | Evaluation of panel test ([6]; 7-days of standing) | Evaluation of panel test ([6]; 3-days of standing)
OC[C@@H](O)[C@@H](O[C@H]1O[C@H](CO)[C@@H](O)[C@H](O)[C@H]1O)[C@H](O)[C@@H](O)CO [Maltitol, maltitol] | 0.03 | 1.02 | 4.09 | ++ | 1.73 | 6.17 | 0.00 | 2.77 | + | 
OC[C@H]1O[C@@](CO)(O[C@H]2O[C@H](CO)[C@@H](O)[C@H](O)[C@H]2O)[C@@H](O)[C@@H]1O [Sucrose, sucrose] | 0.07 | 1.11 | 9.98 | +++ | 5.41 | 24.4 | 0.26 | 16.4 | +++ | ++
OC[C@H]1O[C@H](O[C@H]2O[C@H](CO)[C@@H](O)[C@H](O)[C@H]2O)[C@H](O)[C@@H](O)[C@@H]1O [Trehalose, trehalose] | 0.02 | 0.19 | 3.47 | + | 1.27 | 4.10 | 0.00 | 2.64 | + | 
